{"source": "patent US8614091B2", "about": "“PNMT as a novel marker for progenitor cells” (priority 2004, dated 2013)", "key": {"Dbh-/- embryos": {"system": "Dbh-/- embryos", "conditions": "DOPS in the maternal drinking water; cited from earlier work"}, "[1]": {"system": "neonatal rat cardiomyocytes", "assay": "Beating rate measurements in cultured neonatal rat cardiomyocytes", "assay_type": "cell-based", "conditions": "for decrease in the beating rate: acute, spontaneously beating cultures after 7 d; for effect on beating rate, acute treatment: increasing concentrations, within seconds to 1-2 min after drug application, normal serum", "protocol": "D) Preparation of rat neonatal cardiomyocyte cultures. […] The heart was immediately removed under aseptic conditions and placed in ice-cold sterile HBSS (no Ca^++ or Mg^++). Enzymatic and mechanical dissociation of cardiomyocytes was then performed using the Neonatal Cardiomyocyte Isolation System supplied by Worthington Biochemicals (Freehold, N.J., U.S.A.). The hearts were minced on ice and digested overnight at 4° C. with purified trypsin (10 μg/mL) in HBSS. On the following morning, the digested tissue was transferred to a 50-mL conical tube and purified soybean trypsin inhibitor (40 μg/mL) was added to terminate trypsinization. The tissue was oxygenated and warmed to 37° C. […] C. with intermittent gentle swirling. Mild trituration was then used to mechanically dissociate the digested tissue, and single-cell suspensions were obtained by filtering this digested material through 70 μm sterile mesh filters. The cells were collected by low-speed centrifugation. The supernatant was discarded and the cell pellet resuspended in DMEM (high glucose, Biofluids, Rockville, Md., U.S.A.) culture medium containing 10% defined iron-supplemented bovine calf serum (Hyclone Laboratories, Logan, Utah, U.S.A.), 2 mM glutamine, and gentamicin sulfate (50 μg/mL). In some experiments, the serum was pretreated with charcoal before adding it to the media (10% volume as above) to remove possible trace amounts of catecholamines that may have been present The cells were then “preplated” to remove fibroblasts, and the remaining cells counted and seeded onto multi-well culture plates at a density of 75,000 cells per cm^2. The media was changed every 2-3 d beginning the day after seeding. Bromodeoxyuridine (0.1 mM) was added to the culture media for the first 3 d to further minimize contamination from fibroblasts.\nE) Beating rate measurements. Beating activity of cultured cardiomyocytes was measured by edge-detection using photodiode sensors attached to a monitor screen depicting beating cells viewed by videomicroscopy. […] The photodiode sensor signal was filtered with an 8-pole Bessel low-pass filter (Model 900CT, Frequency Devices, Inc., Havervill, Mass., U.S.A.) with a cutoff frequency of 1000 Hz, and relayed to a PC equipped with a National Instruments data acquisition board and LabView 4.0 processing software. Parallel outputs were also directed to a Gould TA550 chart recorder and an oscilloscope. Data were continuously acquired and stored to disk for later analysis. Drugs were added and immediately mixed in the media overlying the cells in each well. Predrug (baseline) measurements were performed first, and the indicated drug(s) were added as a 100× stock to the preexisting media on each well, and rapidly mixed. Beating rates were remeasured within 2-3 min after drug addition.\nF) Data analysis. The number of beating rate measurements was typically obtained from different wells of multi-well plates (usually six wells per plate), seeded from the same preparation of myocytes. Measurements were obtained immediately before and after the addition of specified drugs. In the reserpine experiment, beating rate measurements were obtained at multiple time-points after drug administration. Each experiment was replicated at least twice using independently isolated cultures, and a representative result from each is shown. Unless otherwise indicated, all beating rate measurements were performed on cells that had been cultured for 7-9 d. All data are expressed as mean.+−.SEM. Statistical significance was assessed by one-way ANOVA, with p<0.05 required to reject the null hypothesis. Posthoc testing was performed using Bonferroni's correction for multiple comparisons."}}, "note": "Entries after “also recorded” stand apart in the source; their conditions may differ.", "data": [{"smiles": "N[C@H](C(=O)O)[C@H](O)c1ccc(O)c(O)c1", "note": "[DOPS]", "values": [{"measurement": "rescue of Dbh-/- embryos that die of cardiovascular failure in utero", "setting": "Dbh-/- embryos", "value": "rescued"}]}, {"smiles": "CNC[C@H](O)c1cccc(O)c1", "note": "[L-phenylephrine]", "values": [{"measurement": "reversal of prazosin-induced decrease in beating rate", "setting": "[1]; L-phenylephrine at increasing concentrations, in presence of prazosin 1 μM, charcoal-stripped serum", "value": "dose-dependent reversal; also recorded: reversed"}]}, {"smiles": "CNC[C@H](O)c1ccc(O)c(O)c1", "note": "[epinephrine]", "values": [{"measurement": "rescue of timolol-suppressed beating rate in charcoal-stripped serum media", "setting": "[1]; epinephrine 1 μM added in presence of timolol 10 μM", "value": "fully rescued; also recorded: full recovery of beating rate"}, {"measurement": "duration of recovery of beating rate", "setting": "[1]; epinephrine 1 μM in presence of timolol 10 μM, charcoal-stripped serum", "value": "30 to 60", "unit": "min"}]}, {"smiles": "NC[C@H](O)c1ccc(O)c(O)c1", "note": "[norepinephrine]", "values": [{"measurement": "reversal of reserpine-induced decrease in beating rate", "setting": "[1]; NE 1 μM, about 2 min after addition, after 8 h of reserpine 2.5 μM", "value": "largely reversed"}]}, {"smiles": "COc1cc2nc(N3CCN(C(=O)c4ccco4)CC3)nc(N)c2cc1OC", "note": "[prazosin]", "values": [{"measurement": "decrease in the beating rate", "setting": "[1]; 1 μM prazosin", "value": "~25", "unit": "%"}, {"measurement": "decrease in the beating rate", "setting": "[1]; 10 μM prazosin", "value": "> 85", "unit": "%"}, {"measurement": "effect on beating rate, acute treatment", "setting": "[1]", "value": "dose-dependent decreases in the beating rate"}, {"measurement": "effect on beating rate in media with charcoal-stripped serum", "setting": "[1]; prazosin 1 μM vs baseline control", "value": "significant decreases in beating rates; also recorded: significant reduction in the beating rate"}]}, {"smiles": "COC(=O)[C@H]1[C@H]2C[C@@H]3c4[nH]c5cc(OC)ccc5c4CCN3C[C@H]2C[C@@H](OC(=O)c2cc(OC)c(OC)c(OC)c2)[C@@H]1OC", "note": "[reserpine]", "values": [{"measurement": "effect on beating rate, catecholamine depletion", "setting": "[1]; increasing concentrations of reserpine, measured up to 8 h", "value": "Significant dose-dependent decreases in beating rates"}]}, {"smiles": "CC(C)(C)NC[C@H](O)COc1nsnc1N1CCOCC1", "note": "[timolol]", "values": [{"measurement": "effect on beating rate, acute treatment", "setting": "[1]", "value": "significant concentration-dependent slowing in the beating rate"}, {"measurement": "effect on beating activity in media with charcoal-stripped serum", "setting": "[1]; timolol 10 μM, continuous, assessed at 24 and 72 h", "value": "strongly suppressed beating activity"}]}]}
